According to patent EP0278673B1, “A benzoylurea derivative and its production and use” (priority 1987, dated 1988):

Experiments:
Assay type in all cases: in vivo
[1] = test system: common mosquito (Culex pipiens pallens); assay: Emergence inhibition test on last instar mosquito larvae (Test example 1); conditions: 0.01 ppm in water; 20 last instar larvae bred until emergence; two replications
Protocol: The emulsifiable concentrates of the following test compounds obtained according to Formulation example 1 were each diluted with water to a concentration of 0.01 ppm. Thereafter, 100 ml of each dilute solution thus obtained was put in a 180-ml polyethylene cup, and 20 last instar larvae of common mosquito (Culex pipiens pallens) were liberated therein. The larvae were bred on a bait until emergence to obtain an emergence inhibitory ratio (two replications).

[2] = test system: tobacco cutworm (Spodoptera litura); assay: Mortality test on fourth instar larvae with treated artificial diet (Test example 2); conditions: 50 ppm, 2 ml on 13 g artificial diet, after six days, two replications, 8640 min
Description: The emulsifiable concentrates of the following test compounds obtained according to Formulation example 1 were each diluted with water to a concentration of 50 ppm. Two milliliters of each dilute solution thus obtained was applied onto 13 g of artificial diet for tobacco cutworm (Spodoptera litura) which were then put in a polyethylene cup of 11 cm in diameter. Then, ten fourth instar larvae of tobacco cutworm were liberated in the cup. After six days, the dead and alive were examined to obtain mortality (two replications).

[3] = test system: carmine spider mite (Tetranychus cinnabarinus); assay: Adult emergence inhibition test on sprayed deutonymphs (Test example 3); conditions: 3 ml sprayed, after three days
Protocol: The emulsifiable concentrates of the following test compounds obtained according to Formulation example 1 were each diluted with water to a pre-determined concentration to obtain a dilute solution of each emulsifiable concentrate. From 20 to 60 deutonymphs of carmine spider mite (Tetranychus cinnabarinus) were transferred onto leaves in a petri dish, and 3 ml of the dilute solution was sprayed thereon. After three days, the number of the adults was counted to obtain an adult emergence inhibitory ratio.

[4] = test system: carmine spider mite (Tetranchus cinnabarinus); assay: Sterilization test on sprayed female adults, egg hatchability (Test example 4); conditions: 100 ppm, 3 ml sprayed on female adults; oviposition three days; hatchability after six days at 27°C
Protocol: The emulsifiable concentrates of the following test compounds obtained according to Formulation example 1 were each diluted with water to a concentration of 100 ppm to obtain a dilute solution of each emulsifiable concentrate. Thirty female adults of carmine spider mite (Tetranchus cinnabarinus) were transferred onto a leaf in a petri dish, and 3 ml of the dilute solution was sprayed thereon. After air-drying, 18 female adults were transferred onto untreated leaves in a petri dish, and allowed to oviposit for three days. The eggs obtained were stored in a chamber controlled at 27°C in an artificial weather room. After six days, hatchability of the eggs was examined to obtain a sterilization ratio.

[5] = test system: carmine spider mite (Tetranychus cinnabarinus); assay: Degree of mite damage on potted kidney bean after spray and soil treatment (Test example 5); set-up: key: -: Little damage is observed.; +: Slight damage is observed.; ++: Same damage as in the untreated plot is observed; conditions: 500 ppm, 10 ml sprayed on plant, 2 ml on pot soil, after 20 days
Protocol: Ten female adults of carmine spider mite (Tetranychus cinnabarinus) were transferred onto each leaf of potted kidney bean in a primary leaf stage, which had elapsed seven days after sowing, and stored in a constant-temperature room kept at 25°C. After six days, the emulsifiable concentrate of the following test compounds formulated according to Formulation example 1 was diluted with water so that the active ingredient concentration was 500 ppm. Ten milliliters of the dilute solution was sprayed onto the plant on a turn table by a spray gun, and 2 ml of the diluted solution was treated on the pot soil. After 20 days, the degree of damage of each kidney bean by mites was examined.
The degree of damage was classified into three stages, -, + and ++. - : Little damage is observed. + : Slight damage is observed. ++: Same damage as in the untreated plot is observed.

SMILES	Emergence inhibitory ratio (%) [1] [%]	Mortality (%) [2] [%]	Concentration and adult emergence inhibitory ratio (%) 100 ppm [3] [%]	Sterilization ratio (%) [4] [%]	Concentration and adult emergence inhibitory ratio (%) 500 ppm ([3]; 500 ppm) [%]	Degree of damage [5]
O=C(NC(=O)c1c(F)cccc1F)Nc1cc(Cl)c(Nc2ccc(OC(F)(F)C(F)F)cc2)c(Cl)c1 [(3), N-2,6-difluorobenzoyl-Nʹ-3,5-dichloro-4-[4-(1,1,2,2-tetrafluoroethoxy)anilino]phenylurea]	100	100	91	95		
O=C(NC(=O)c1c(F)cccc1F)Nc1cc(Cl)c(Nc2ccc(OC(F)(F)F)cc2)c(Cl)c1 [(1), N-2,6-difluorobenzoyl-Nʹ-3,5-dichloro-4-[4-(trifluoromethoxy)anilino]phenylurea]	100	100	100	98	94	-
